Data as given in patent publication US12390423B2 (priority 2019, dated 2025).

What was measured:
[1] = tested on: insulin signaling (pAkt-Ser473), MAPK, AMPK; test: Immunoblotting (pAkt, pERK1/2, pP38, pAMPKα, PGC-1α) and NAO mitochondrial mass in C2C12 myotubes; type: cell-based, mouse; settings: 0.5 mM palmitate 24 h, 100 nM insulin 30 min, AvoB 25 μM, DCA 1 mM, TRI 25 μM
Procedure: For all ROS studies, INS-1 (832/13) cells and C2C12 myotubes were treated with or without palmitate and FAO inhibitors for 24 h in low glucose cell culture media as described for the FAO assay. After treatment, cells were trypsinized and re-suspended in PBS containing 5 μM of the fluorescent dye MitoSOX® (Molecular Probes, Invitrogen) and allowed to incubate for 5-15 minutes in a humidified atmosphere containing 5% CO2 at 37° C. Cells were then washed in PBS, placed in a 96 well plate and fluorescence was measured by flow cytometry. ROS was quantified by normalizing the mean fluorescence values of live gated cells to vehicle control. Mitochondrial membrane potential (MMP) in INS-1 (832/13) and C2C12 myotubes was measured using the cationic fluorescent dye JC-1 (Molecular Probes). JC-1 accumulates in the mitochondrial matrix in an MMP dependent manner. JC-1 fluoresces green in the cytosol where it exists as a monomer, after entering the mitochondria JC-1 monomers form J aggregates and fluoresce red, thus the red/green fluorescence ratio is used to determine MMP. After all treatments, cells were washed, trypsinized and re-suspended in PBS containing 1 μM JC-1 and allowed to incubate for 5-10 minutes in a humidified atmosphere containing 5% CO2 at 37° C. Cells were then washed in PBS, placed in a 96 well plate and fluorescence was measured by flow cytometry. MMP was quantified by normalizing the mean fluorescence values of live gated cells to vehicle control. Mitochondrial mass was measured using 10-N-nonyl acridine orange (NAO; Enzo Life Sciences, ENZ-52306), which accumulates in the mitochondria in an MMP-independent manner where it binds to cardiolipin in the inner mitochondrial membrane. Cells were treated, washed and collected as described and incubated with 0.35 μM NAO and green fluorescence was measured using flow cytometry. In all analysis (ROS, MMP and mitochondrial mass), forward vs side scatter plots were gated to exclude debris (e.g., dead cells), as cell death is associated with increased ROS and altered membrane potentials. For all cell culture experiments, after drug treatments cells were washed with chilled phosphate-buffered saline (PBS), and lysed in chilled lysis buffer with 1× protease inhibitor cocktail (Sigma). RIPA lysis buffer (Sigma-Aldrich) was used for INS-1 (832/13) cells and muscle lysis buffer for C2C12 myotubes (20 mM HEPES, 10 mM NaCl, 1.5 mM MgCl2, 1 mM DTT, 20% glycerol, and 0.1% Triton-X100). Cells were scraped, mechanically homogenized using a syringe and centrifuged at 14,000×g for 20 min at 4° C. and the supernatants were collected. For preparation of all gastrocnemius muscle lysates, 10 mg frozen tissue (wet weight) was washed in chilled PBS, placed in a dounce homogenizer, lysed in muscle lysis buffer and centrifuged at 14,000×g for 20 min at 4° C. and the supernatant was collected. Protein content for cell and tissue lysates was measured using the BCA protein assay kit (ThermoFisher) according to manufacturer's protocol. Thirty μg protein lysates were prepared in loading buffer and immunoblotting was performed by heating lysates for 5 minutes at 95° C. and subjecting them to gel electrophoresis on 10% SDS-polyacrylamide gels at 150 V for 75 minutes. Using a semi-dry transfer apparatus (Bio-Rad) the gels were then transferred at 25V for 45 minutes to a PVDF membrane and blocked with 5% BSA (Sigma) in tris-buffered saline-tween (TBS-T) for 1 hour. […]

C2C12 myotubes = test: Cellular ATP content in C2C12 myotubes; type: cell-based, mouse; settings: 0.5 mM palmitate 24 h, AVO 25 μM, DCA 1 mM, TRI 25 μM
Procedure: Total cellular ATP content was determined using the ATP bioluminescent assay kit (Calbiochem, 119107). Briefly, cells were seeded in white walled 96-well plates (1.2×10^4 cells/well for INS-1 and 2×10^4 cells/well for C2C12) and treated for 24 h (C2C12 cells were differentiated for 5 days prior to treatments whereas INS-1 cells were treated 24 h after seeding). After treatment, culture media was removed, and cells were lysed with nucleotide releasing buffer with gentle shaking for 5 min. ATP monitoring enzyme was then added to cell lysates and plates and luminescence was read in a Biotek Synergy HT spectrophotometer (Biotek; Winooski, VT).

INS-1 (832/13) cells [2] = test: Cytosolic calcium determination (fluo-3AM) in INS-1 (832/13) cells; type: cell-based, rat; settings: 0.5 mM palmitate, non-stimulatory glucose, AvoB 25 μM, ETO 100 μM, TMB-8 10 μM
Procedure: INS-1 (832/13) cells were treated as described for the FAO assays but also with metabolic modulators dichloroacetate (DCA) (1 mM) and trimetazidine (25 μM) as well as 10 μM endoplasmic reticulum calcium blocker 8-(N,N-Diethylamino)-octyl-3,4,5-trimethoxybenzoate HCl (TMB-8) (Sigma Aldrich) or 25 nM cyclosporin (Sigma Aldrich) in the presence of 0.5 mM palmitate/1 mM L-carnitine. Cytosolic calcium was measured in INS-1 (832/13) cells using fluo-3AM (Invitrogen, F1241) charged fluorescent dye that accumulates in the cytosol and emits green fluorescence after binding calcium ions. A stock solution of 10 mM fluo-3AM was diluted to 5 μM in fluo-3AM loading buffer (10 mM 4-(2-hydroxyethyl)-1-piperazineethanesulfonic acid (HEPES), 137 mM NaCl, […], 1 mM Na2HPO4, 5 mM glucose, and 0.5 mM MgCl2 (pH 7.4)]. After treatment, cells were incubated in fluo-3AM loading buffer for 30 min at 37° C. with gentle agitation after which cells were washed twice with PBS, trypsinized and collected for flow cytometry analysis. Cytosolic calcium was quantified by taking the mean green fluorescence values of live gated cells and normalizing to vehicle control.

INS-1 (832/13) cells [3] = test: Glucose stimulated insulin secretion (GSIS) in INS-1 (832/13) cells; type: cell-based, rat; settings: 0.5 mM palmitate 24 h, AvoB 25 μM, ETO 100 μM
Procedure: To measure glucose stimulated insulin secretion (GSIS) in INS-1(832/13) cells a standard protocol was adopted. […] After treatments were complete, cell media was replaced with KRB (Krebs-Ringer Bicarbonate) buffer. Cells were then challenged with 3 mM glucose for 2 h in KRB buffer after which 500 μL KRB buffer was collected and frozen in −80° C. until analysis. For another 2 h, cells were challenged with 16 mM glucose after which 500 μL KRB was collected and frozen in −80° C. until analysis. The amount of insulin released into the KRB buffer was determined by an ELISA kit (Millipore, Rat/Mouse Insulin Detection kit). Data was normalized for cellular protein content, as determined by the Micro-BCA Protein Assay kit. The glucose-dependent insulin secretory index (GSIS16/3), defined as the ratio between the insulin secretion at 16 mM (stimulatory, surrogate to postprandial glucose levels) and 3 mM (basal, surrogate to fasting glucose levels) glucose was also calculated.

Structure (SMILES)	Insulin signaling (insulin stimulated phosphorylation of AKT Ser473) [1]	Total cellular ATP content (C2C12 myotubes)	Cytosolic Ca2+ (Fluo-3AM) (INS-1 (832/13) cells [2])	Glucose stimulated insulin secretion (GSIS) (INS-1 (832/13) cells [3])
COc1ccc(CN2CCNCC2)c(OC)c1OC [trimetazidine, reference compound]	did not exert such effects	did not exert such effects	–	–
CCN(CC)CCCCCCCCOC(=O)c1cc(OC)c(OC)c(OC)c1.Cl [TMB-8, 8-(N,N-Diethylamino)-octyl-3,4,5-trimethoxybenzoate HCl]	–	–	able to reduce cytosolic Ca^2+	–
CCOC(=O)[C@@]1(CCCCCCOc2ccc(Cl)cc2)CO1 [ETO, etomoxir, reference compound]	–	–	able to reduce cytosolic Ca^2+	GSIS was higher
